Test results: patent US8785488B2 (Exelixis Patent Company LLC, priority 2009, dated 2014)

Tests used:
[1] = target: T1, h-TGR5 (Homo sapiens, UniProt Q8TDU6); experiment: TGR5 cAMP Assay using Cisbio cAMP Dynamic2 htrf kit (hTGR5CRE-luc HEK 293 cells); type: cell-based; settings: h-TGR5 cAMP EC50, Table 1; read-out: cAMP (EC50)
T1 construct: expressed in transfected cells
T1 sequence (Q8TDU6 1-330): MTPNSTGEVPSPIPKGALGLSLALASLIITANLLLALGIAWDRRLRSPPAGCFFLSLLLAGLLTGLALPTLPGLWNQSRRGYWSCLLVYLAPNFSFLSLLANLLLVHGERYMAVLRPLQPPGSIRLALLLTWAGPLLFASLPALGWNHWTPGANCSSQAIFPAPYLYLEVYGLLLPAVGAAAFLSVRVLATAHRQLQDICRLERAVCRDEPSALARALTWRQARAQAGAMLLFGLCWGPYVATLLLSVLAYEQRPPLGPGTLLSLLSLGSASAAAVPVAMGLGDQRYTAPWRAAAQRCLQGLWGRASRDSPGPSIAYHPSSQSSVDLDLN
Outline: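 […], 4000 hTGR5CRE-luc HEK 293 cells per well, with 0.5 mM IBMX and d2-cAMP, were incubated 30 min at room temperature with compounds in 8-point half-log series, in quadruplicate.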

[2] = target: T2, human TGR5 (h-TGR5) (Homo sapiens, UniProt Q8TDU6); experiment: TGR5/CRE-Luciferiase Assay (HEK 293 hTGR5/CRE-Luc cells); type: cell-based; settings: h-TGR5 CRE-Luc EC50, Table 1; read-out: CRE-Luc (EC50)
T2 construct: expressed in transfected cells
T2 sequence (Q8TDU6 1-330): T1 sequence (Q8TDU6 1-330)
Outline: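 HEK293 cells stably carrying hTGR5 and a CRE-luciferase reporter were exposed to serially diluted compounds (diluted in DMEM with 5% DMSO) for 6 h. Cells were then lysed in luciferase buffer, luminescence was read, and EC50 values were derived from dose-response curves.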

SMILES | EC50 [1] | EC50 [2]
CC(C)(c1ccc(Cl)c(Cl)c1)c1cnc(SCc2ccc(Cl)c(S(N)(=O)=O)c2)n1-c1ccc(F)cc1 [2-chloro-5-[({5-[1-(3,4-dichlorophenyl)-1-methylethyl]-1-(4-fluorophenyl)-1H-imidazol-2-yl}thio)methyl]benzenesulfonamide] | < 100 nM | < 100 nM
COc1cc(-n2c(C(C)(C)c3ccc(Cl)c(Cl)c3)cnc2SCC2CCN(c3nnn[nH]3)CC2)ccc1F [4-[({5-[1-(3,4-dichlorophenyl)-1-methylethyl]-1-[4-fluoro-3-(methyloxy)phenyl]-1H-imidazol-2-yl}thio)methyl]-1-(1H-tetrazol-5-yl)piperidine] | < 100 nM | < 100 nM
CC(C)(c1ccc(Cl)c(Cl)c1)c1cnc(SCc2ccc(S(=O)(=O)NC(=O)NN3CCCC3)cc2Cl)n1-c1ccc(F)cc1 [3-chloro-4-[({5-[1-(3,4-dichlorophenyl)-1-methylethyl]-1-(4-fluorophenyl)-1H-imidazol-2-yl}thio)methyl]-N-[(pyrrolidin-1-ylamino)carbonyl]benzenesulfonamide] | 1000 to 10000 nM | 100 to 1000 nM
COc1cc(-n2c(C(C)(C)c3ccc(Cl)c(Cl)c3)cnc2SCc2ccc(S(=O)(=O)NC(=O)NN3CCOCC3)cc2Cl)ccc1F [3-chloro-4-[({5-[1-(3,4-dichlorophenyl)-1-methylethyl]-1-[4-fluoro-3-(methyloxy)phenyl]-1H-imidazol-2-yl}thio)methyl]-N-[(morpholin-4-ylamino)carbonyl]benzenesulfonamide] | 100 to 1000 nM | 100 to 1000 nM
COc1cc(C(C)(C)c2cnc(SCc3ccc(S(=O)(=O)NC(=O)NN4CCCC4)cc3Cl)n2-c2ccc(F)c(C)c2)ccc1Cl [3-chloro-4-({[5-{1-[4-chloro-3-(methyloxy)phenyl]-1-methylethyl}-1-(4-fluoro-3-methylphenyl)-1H-imidazol-2-yl]thio}methyl)-N-[(pyrrolidin-1-ylamino)carbonyl]benzenesulfonamide] | 100 to 1000 nM | < 100 nM
CC(C)(c1ccc(Cl)c(Cl)c1)c1cnc(S(=O)(=O)NCc2c(F)cccc2Cl)n1-c1ccc(F)cc1 [N-[(2-chloro-6-fluorophenyl)methyl]-5-[1-(3,4-dichlorophenyl)-1-methylethyl]-1-(4-fluorophenyl)-1H-imidazole-2-sulfonamide] | 100 to 1000 nM | 100 to 1000 nM
COc1ccc(C(C)(C)c2cnc(CCc3c(F)cccc3Cl)n2-c2ccc(F)cc2)cc1OC [5-{1-[3,4-bis(methyloxy)phenyl]-1-methylethyl}-2-[2-(2-chloro-6-fluorophenyl)ethyl]-1-(4-fluorophenyl)-1H-imidazole] | < 100 nM | < 100 nM
CC(C)(c1ccc(F)c(F)c1)c1cnc(SCC2CCN(C(=O)NN3CCCC3)CC2)n1-c1ccc(F)cc1 [4-[({5-[1-(3,4-difluorophenyl)-1-methylethyl]-1-(4-fluorophenyl)-1H-imidazol-2-yl}thio)methyl]-N-pyrrolidin-1-ylpiperidine-1-carboxamide] | 100 to 1000 nM | 100 to 1000 nM
COc1ccc(C(C)(C)c2cnc(COc3c(F)cccc3Cl)n2-c2ccc(F)cc2)cc1OC [5-{1-[3,4-bis(methyloxy)phenyl]-1-methylethyl}-2-{[(2-chloro-6-fluorophenyl)oxy]methyl}-1-(4-fluorophenyl)-1H-imidazole] | < 100 nM | < 100 nM
CC(C)(c1ccc(F)c(F)c1)c1cnc(SCc2ccc(S(=O)(=O)NC(=O)NN3CCCC3)cc2Cl)n1-c1ccc(F)cc1F [3-chloro-4-[({1-(2,4-difluorophenyl)-5-[1-(3,4-difluorophenyl)-1-methylethyl]-1H-imidazol-2-yl}thio)methyl]-N-[(pyrrolidin-1-ylamino)carbonyl]benzenesulfonamide] | 1000 to 10000 nM | 100 to 1000 nM
CCN(CC)CCS(=O)(=O)N1CCC(CSc2ncc(C(C)(C)c3ccc(Cl)c(Cl)c3)n2-c2ccc(F)cc2)CC1 [2-({4-[({5-[1-(3,4-dichlorophenyl)-1-methylethyl]-1-(4-fluorophenyl)-1H-imidazol-2-yl}thio)methyl]piperidin-1-yl}sulfonyl)-N,N-diethylethanamine] | 100 to 1000 nM | 100 to 1000 nM
COc1ccc(C(C)(C)c2cnc(CSc3c(F)cccc3Cl)n2-c2ccc(F)cc2)cc1OC [5-{1-[3,4-bis(methyloxy)phenyl]-1-methylethyl}-2-{[(2-chloro-6-fluorophenyl)thio]methyl}-1-(4-fluorophenyl)-1H-imidazole] | < 100 nM | < 100 nM

Next, values leading:

EC50 [1] | EC50 [2] | SMILES
< 100 nM | 1000 to 10000 nM | COc1cc(C(C)(C)c2cnc(SCc3ccc(S(=O)(=O)NC(=O)N4CCC(O)C4)cc3Cl)n2-c2ccc(F)cc2)ccc1Cl (centres unmarked) [N-{[3-chloro-4-({[5-{1-[4-chloro-3-(methyloxy)phenyl]-1-methylethyl}-1-(4-fluorophenyl)-1H-imidazol-2-yl]thio}methyl)phenyl]sulfonyl}-3-hydroxypyrrolidine-1-carboxamide]
< 100 nM | < 100 nM | COc1ccc(C(C)(C)c2cnc(SCc3c(Cl)cccc3Cl)n2-c2ccc(F)cc2)cc1OC [5-{1-[3,4-bis(methyloxy)phenyl]-1-methylethyl}-2-{[(2,6-dichlorophenyl)methyl]thio}-1-(4-fluorophenyl)-1H-imidazole]
< 100 nM | < 100 nM | COc1cc(C(C)(C)c2cnc(SCc3c(F)cc(S(=O)(=O)NCCCNC(=N)N)cc3F)n2-c2ccc(F)cc2)ccc1Cl [N-(3-{[amino(imino)methyl]amino}propyl)-4-({[5-{1-[4-chloro-3-(methyloxy)phenyl]-1-methylethyl}-1-(4-fluorophenyl)-1H-imidazol-2-yl]thio}methyl)-3,5-difluorobenzenesulfonamide]
< 100 nM | < 100 nM | COc1cc(C(C)(C)c2cnc(SCc3c(F)cc(C(=O)NCCCC(=O)O)cc3Cl)n2-c2ccc(F)cc2)ccc1Cl [4-({[3-chloro-4-({[5-{1-[4-chloro-3-(methyloxy)phenyl]-1-methylethyl}-1-(4-fluorophenyl)-1H-imidazol-2-yl]thio}methyl)-5-fluorophenyl]carbonyl}amino)butanoic acid]
100 to 1000 nM | 100 to 1000 nM | CC(C)(c1ccc(Cl)c(Cl)c1)c1cnc(SCc2ccc(C(=O)NCCc3c[nH]cn3)cc2F)n1-c1ccc(F)cc1 [4-[({5-[1-(3,4-dichlorophenyl)-1-methylethyl]-1-(4-fluorophenyl)-1H-imidazol-2-yl}thio)methyl]-3-fluoro-N-[2-(1H-imidazol-4-yl)ethyl]benzamide]
< 100 nM | < 100 nM | COc1cc(C(C)(C)c2cnc(SCc3c(F)cc(C(=O)N[C@@H](CCCN)C(=O)O)cc3Cl)n2-c2ccc(F)cc2)ccc1Cl [N-2-{[3-chloro-4-({[5-{1-[4-chloro-3-(methyloxy)phenyl]-1-methylethyl}-1-(4-fluorophenyl)-1H-imidazol-2-yl]thio}methyl)-5-fluorophenyl]carbonyl}-L-ornithine]
100 to 1000 nM | < 100 nM | CC(=O)COc1ccc(CSc2ncc(C(C)(C)c3ccc(Cl)c(Cl)c3)n2-c2ccc(F)cc2)cc1S(N)(=O)=O [5-[({5-[1-(3,4-dichlorophenyl)-1-methylethyl]-1-(4-fluorophenyl)-1H-imidazol-2-yl}thio)methyl]-2-[(2-oxopropyl)oxy]benzenesulfonamide]
< 100 nM | < 100 nM | COc1cc(C(C)(C)c2cnc(SCc3c(F)ccc(S(N)(=O)=O)c3F)n2-c2ccc(F)cc2)ccc1Cl [3-({[5-{1-[4-chloro-3-(methyloxy)phenyl]-1-methylethyl}-1-(4-fluorophenyl)-1H-imidazol-2-yl]thio}methyl)-2,4-difluorobenzenesulfonamide]
< 100 nM | < 100 nM | COc1cc(C(C)(C)c2cnc(SCc3cc(C(=O)O)ccc3Cl)n2-c2ccc(F)cc2)ccc1Cl [4-chloro-3-({[5-{1-[4-chloro-3-(methyloxy)phenyl]-1-methylethyl}-1-(4-fluorophenyl)-1H-imidazol-2-yl]thio}methyl)benzoic acid]
< 100 nM | < 100 nM | COc1cc(-n2c(C(C)(C)c3ccc(F)c(C#N)c3)cnc2SCc2c(F)cc(C(=O)O)cc2F)ccc1F [4-[({5-[1-(3-cyano-4-fluorophenyl)-1-methylethyl]-1-[4-fluoro-3-(methyloxy)phenyl]-1H-imidazol-2-yl}thio)methyl]-3,5-difluorobenzoic acid]
< 100 nM | < 100 nM | COc1cc(C(C)(C)c2cnc(SCc3c(F)cc(C(=O)NCS(=O)(=O)O)cc3Cl)n2-c2ccc(F)cc2)ccc1Cl [({[3-chloro-4-({[5-{1-[4-chloro-3-(methyloxy)phenyl]-1-methylethyl}-1-(4-fluorophenyl)-1H-imidazol-2-yl]thio}methyl)-5-fluorophenyl]carbonyl}amino) methanesulfonic acid]
< 100 nM | < 100 nM | COc1cc(C(C)(C)c2cnc(SCc3c(F)cc(OCCNC(=N)NC(=N)N)cc3F)n2-c2ccc(F)cc2)ccc1Cl [N-(2-{[4-({[5-{1-[4-chloro-3-(methyloxy)phenyl]-1-methylethyl}-1-(4-fluorophenyl)-1H-imidazol-2-yl]thio}methyl)-3,5-difluorophenyl]oxy}ethyl)imido dicarbonimidic diamide]
< 100 nM | < 100 nM | COc1cc(C(C)(C)c2cnc(SCc3c(F)cc(NC(=O)[C@@H](N)CC(=O)O)cc3Cl)n2-c2ccc(F)cc2)ccc1Cl
